From PMC6007452 (Journal of Insect Science, 2018)

T1: HaTreh-1 (soluble trehalase) (Helicoverpa armigera, UniProt A0A6B8YU37)
T1 sequence (A0A6B8YU37 24-571): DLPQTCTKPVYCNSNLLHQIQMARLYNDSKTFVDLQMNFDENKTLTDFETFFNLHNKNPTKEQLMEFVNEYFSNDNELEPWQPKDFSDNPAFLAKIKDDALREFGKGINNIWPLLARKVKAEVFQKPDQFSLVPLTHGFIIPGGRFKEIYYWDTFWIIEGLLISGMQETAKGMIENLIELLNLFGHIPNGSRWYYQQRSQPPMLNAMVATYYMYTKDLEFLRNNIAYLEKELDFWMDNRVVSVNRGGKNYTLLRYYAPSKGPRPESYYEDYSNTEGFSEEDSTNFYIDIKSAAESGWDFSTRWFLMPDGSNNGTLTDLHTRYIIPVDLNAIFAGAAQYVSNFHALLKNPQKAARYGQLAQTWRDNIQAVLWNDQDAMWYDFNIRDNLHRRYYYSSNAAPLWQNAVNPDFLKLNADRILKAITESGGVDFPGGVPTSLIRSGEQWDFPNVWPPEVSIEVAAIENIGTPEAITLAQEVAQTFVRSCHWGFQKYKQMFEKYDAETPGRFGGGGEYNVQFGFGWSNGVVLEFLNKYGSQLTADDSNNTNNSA

B1: HaTreh-1 (soluble trehalase) (Helicoverpa armigera) (protein)
chain: T1 sequence (A0A6B8YU37 24-571)

Columns and labels:
[1] = molecular target: T1, HaTreh-1 (soluble trehalase); format: biochemical
enzyme kinetics = substrate: OC[C@H]1O[C@H](O[C@H]2O[C@H](CO)[C@@H](O)[C@H](O)[C@H]2O)[C@H](O)[C@@H](O)[C@@H]1O; assay: enzyme kinetics; format: biochemical, Helicoverpa armigera

Molecule | Ki [1] | Km (enzyme kinetics)
O[C@H]1[C@H](O)[C@@H](O)CN2CC[C@H](O)[C@H]12 [castanospermine] | 6.7 µM | –
B1 | – | 72.8 mM
